Test results as given in patent US20100311835A1, “CIS-9, TRANS-11 ISOMER OF CONJUGATED LINOLEIC ACID (CLA) FOR TREATING INFLAMMATORY DISEASES” (COGNIS IP MANAGEMENT GMBH, priority 2003, published 2010).

Assays:
[1] = test system: eosinophilic granuloctyes; assay: Apoptosis of eosinophilic granulocytes in vitro; type: cell-based
IL-8 mRNA = assay: Quantification of IL-8 mRNA by RT-PCR in stimulated bronchial epithelial cells; type: cell-based, human; conditions: 20 μg/mL, 4 h and 12 h, LPS/serum-stimulated, RT-PCR with cyclophilin as internal standard
Protocol: (§1) • Cell cultures. The transformed human bronchial epithelial cell line BEAS-2B (Clonetics Cell Systems, St. Katharinen, Germany) and the normal human bronchial epithelial cell line in primary culture (American Type Culture Collection, Manassas, Va., USA) were cultured in T-25-tissue flasks in bronchial/tracheal epithelial cell basal medium (BEBM) supplemented with a variety of growth factors including bovine pituitary extract (0,052 mg/mL), human recombinant epidermal growth factor (0.5 ng/mL), hydrocortisone (0.5 μg/mL), epinephrine (0.5 μg/mL), transferrin (0.01 mg/mL), insulin (5 μg/mL), retinoic acid (0.1 ng/mL), triiodthyronine (6.5 ng/mL), gentamicin (0.05 mg/mL) and amphotericin (0.05 μg/mL), all purchased from Clonetics Cell Systems (St. Katharinen, Germany). Cultures were held at 37° C. in a humidified atmosphere of 5% CO2 in air and the medium was changed every other day. • Stimulation of cells and fatty acid supplementation. […] Cells were trypsinised to determine cell numbers and allow quantification of differences in cell proliferation in response to different treatments. • Measurement of IL-6 and IL-8 in cell culture supernatants. […] Specific interleukin concentrations were expressed as picograms of interleukin per millilitre. • Estimation of cytokine gene expression with RT-PCR. […]

IL-8 [2] = assay: IL-8 in cell culture supernatants by ELISA, stimulated BEAS-2B; type: cell-based, human
Protocol: (§2) • Cell cultures. The transformed human bronchial epithelial cell line BEAS-2B (Clonetics Cell Systems, St. Katharinen, Germany) and the normal human bronchial epithelial cell line in primary culture (American Type Culture Collection, Manassas, Va., USA) were cultured in T-25-tissue flasks in bronchial/tracheal epithelial cell basal medium (BEBM) supplemented with a variety of growth factors including bovine pituitary extract (0,052 mg/mL), human recombinant epidermal growth factor (0.5 ng/mL), hydrocortisone (0.5 μg/mL), epinephrine (0.5 μg/mL), transferrin (0.01 mg/mL), insulin (5 μg/mL), retinoic acid (0.1 ng/mL), triiodthyronine (6.5 ng/mL), gentamicin (0.05 mg/mL) and amphotericin (0.05 μg/mL), all purchased from Clonetics Cell Systems (St. Katharinen, Germany). Cultures were held at 37° C. in a humidified atmosphere of 5% CO2 in air and the medium was changed every other day. • Stimulation of cells and fatty acid supplementation. Cis-9,trans-11-CLA and linoleic acid (LA) were obtained from Matreya Inc. (Pleasant Gap, Pa., USA). Purified fatty acids in oil form were dissolved in 96% ethanol to give a 20-mM stock solution, which was further diluted in growth medium to produce the range of test concentrations (20 μg/mL, 10 μg/mL and 5 μg/mL CLA and LA, respectively). At confluence, the cells were detached by exposure to trypsin/EDTA solution (0.05/0.02% in Ca^2+- and Mg^2+-free phosphate buffered saline; Biochrom AG, Krefeld, Germany) and reseeded in 12-well plates at a concentration of 1×10^5 cells/well and cultured for 24 h to allow the cells to attach to the substratum. The medium was then replaced and a final volume of 1 ml of each CLA- and LA-test concentrations, supplemented with 5 μg LPS/mL (lipopolysaccharide, E-coli serotype 026:B6, Sigma, Taufkirchen, Germany) and 10% serum from allergic donors, was added to the wells. A similar volume of fatty acid-free medium containing the indicated stimuli and 0.4% ethanol, corresponding to the max. volume in experimental wells, was used in stimulated control. 1 ml of fresh growth medium containing 0.4% ethanol without any fatty acid and stimuli underwent the same measures of preparation and represented the unstimulated control. After incubation for 24 h at 37° C., supernatants were harvested, separated from non-adherent cells and cell debris by centrifugation (1300 rpm, 10 min), and kept at −20° C. until cytokine analysis. Cells were trypsinised to determine cell numbers and allow quantification of differences in cell proliferation in response to different treatments. • Measurement of IL-6 and IL-8 in cell culture supernatants. IL-6 and IL-8 production of epithelial cells were estimated in duplicate by enzyme-linked immunosorbent assay using commercially available ELISA kits (Pharmingen, Heidelberg, Germany) according to the manufacturer's guidelines. Standard curves and blank buffer were included in duplicate in each assay. When necessary, samples were diluted to fit into the assay range. Specific interleukin concentrations were expressed as picograms of interleukin per millilitre. • Estimation of cytokine gene expression with RT-PCR. Cultures of BEAS-2B and NHBE at an initial density of 1×10^5 cells/well were stimulated as described above and treated with cis-9,trans-11-CLA or LA in the highest concentration (20 μg/mL) for 4 h or 12 h before total cellular RNA was isolated for cytokine gene expression analysis by reverse transcriptase-polymerase chain reaction. Total RNA preparations were performed by DNase treatment according to the standard protocol of the High-Pure™ RNA isolation kit from Roche (Mannheim, Germany). For RT-PCR analysis, first strand cDNA was synthesized from extracted RNA using random primers, reagents and conditions supplied in the ProSTAR™ First-Strand RT-PCR kit from Stratagene (Amsterdam, Netherlands). One-tenth of the synthesized cDNA was subjected to PCRamplification in a total volume of 25 μl. […]

IL-6 [3] = assay: IL-6 in cell culture supernatants by ELISA, stimulated NHBE; type: cell-based, human; conditions: 24 h
Protocol: as §2

IL-6 [4] = assay: IL-6 in cell culture supernatants by ELISA, stimulated BEAS-2B; type: cell-based, human
Protocol: as §2

NHBE = assay: Proliferation of LPS/serum-stimulated cells (cell numbers after 24 h); type: cell-based, human
Protocol: as §2

BEAS-2B = assay: as above; type: cell-based, human
Protocol: as §2

IL-8 [5] = assay: IL-8 in cell culture supernatants by ELISA, stimulated NHBE; type: cell-based, human; conditions: 24 h
Protocol: as §2

IL-6 mRNA = assay: Quantification of IL-6 mRNA by RT-PCR in stimulated bronchial epithelial cells; type: cell-based, human; conditions: 20 μg/mL, 4 h and 12 h, LPS/serum-stimulated, RT-PCR with cyclophilin as internal standard
Protocol: as §1

[6] = BEAS-2B, 5 μg/mL, 24 h, vs stimulated control+
[7] = BEAS-2B, 10 μg/mL, 24 h, vs stimulated control+
[8] = BEAS-2B, 20 μg/mL, 24 h, vs stimulated control+
[9] = in vitro, compared to a placebo
[10] = 5 μg/mL, vs stimulated control+
[11] = 10 μg/mL, vs stimulated control+
[12] = 20 μg/mL, vs stimulated control+
[13] = BEAS-2B, 5 μg/mL, 24 h, LPS/serum-stimulated
[14] = BEAS-2B, 10 μg/mL, 24 h, LPS/serum-stimulated

Compound | IL-8 mRNA accumulation compared with stimulated control (c+) (IL-8 mRNA) | pg IL (cytokine release/100.000 cells) (IL-8 [2]; BEAS-2B, 5 μg/mL, 24 h) | pg IL (cytokine release/100.000 cells) (IL-8 [2]; BEAS-2B, 10 μg/mL, 24 h) | pg IL (cytokine release/100.000 cells) (IL-8 [2]; BEAS-2B, 20 μg/mL, 24 h) | pg IL (cytokine release/100.000 cells) (IL-6 [3]; 5 μg/mL) | pg IL (cytokine release/100.000 cells) (IL-6 [3]; 10 μg/mL) | pg IL (cytokine release/100.000 cells) (IL-6 [3]; 20 μg/mL) | pg IL (cytokine release/100.000 cells) (IL-6 [4]; BEAS-2B, 5 μg/mL, 24 h) | pg IL (cytokine release/100.000 cells) (IL-6 [4]; BEAS-2B, 10 μg/mL, 24 h) | pg IL (cytokine release/100.000 cells) (IL-6 [4]; BEAS-2B, 20 μg/mL, 24 h) | % inhibition of proliferation (NHBE; 5 μg/mL, LPS/serum-stimulated) | % inhibition of proliferation (NHBE; 10 μg/mL, LPS/serum-stimulated) | % inhibition of proliferation (BEAS-2B; [13]) | % inhibition of proliferation (BEAS-2B; [14]) | pg IL (cytokine release/100.000 cells) (IL-8 [5]; 5 μg/mL) | pg IL (cytokine release/100.000 cells) (IL-8 [5]; 10 μg/mL) | pg IL (cytokine release/100.000 cells) (IL-8 [5]; 20 μg/mL) | IL-6 mRNA accumulation compared with stimulated control (c+) (IL-6 mRNA) | other results
CCCCCC/C=C/C=C\CCCCCCCC(=O)O (single isomer, unassigned) [CLA, cis-9,trans-11 isomer of conjugated linoleic acid] | diminished | 1774 ± 154 pg/100.000 cells | 1667 ± 160 pg/100.000 cells | 1458 ± 136 pg/100.000 cells | 2049 ± 262 pg/100.000 cells | 2062 ± 707 pg/100.000 cells | 1731 ± 387 pg/100.000 cells | 983 ± 175 pg/100.000 cells | 841 ± 184 pg/100.000 cells | 792 ± 152 pg/100.000 cells | 5.3 ± 3.7% | 15.4±3.6% | 7.9±5.1% | 19.3±5.0% | 6212 ± 513 pg/100.000 cells | 5659 ± 812 pg/100.000 cells | 6793 ± 545 pg/100.000 cells | diminished | apoptosis of eosinophilic granulocytes [1]: support of apoptosis; % inhibition of IL-8-secretion (IL-8 [2]; [6]): 25.6±3.6%; % inhibition of IL-8-secretion (IL-8 [2]; [7]): 38.8 ± 5.2%; % inhibition of IL-8-secretion (IL-8 [2]; [8]): 55.2±5.2%; reduced expression of IL-8 (summary statement) (IL-8 [2]; [9]): about 50%; % inhibition of IL-6-secretion (IL-6 [3]; [10]): 56.9±4.9%; % inhibition of IL-6-secretion (IL-6 [3]; [11]): 62.3 ± 10.2%; % inhibition of IL-6-secretion (IL-6 [3]; [12]): 68.6±5.3%; % inhibition of IL-6-secretion (IL-6 [4]; [6]): 59.9±7.1%; % inhibition of IL-6-secretion (IL-6 [4]; [7]): 69.7 ± 7.6%; % inhibition of IL-6-secretion (IL-6 [4]; [8]): 76.4±4.4%; reduced expression of IL-6 (summary statement) (IL-6 [4]; [9]): about 70%; % inhibition of proliferation (NHBE; 20 μg/mL, LPS/serum-stimulated): 17.4±2.8%; % inhibition of proliferation (BEAS-2B; BEAS-2B, 20 μg/mL, 24 h, 5 μg LPS/mL + 10% serum from allergic donors): 32.7±5.0%; inhibition of cell proliferation of bronchial epithelial cells (summary statement) (BEAS-2B; in vitro, epithelial cells, mainly bronchial epithelial cells): up to 30%; % inhibition of IL-8-secretion (IL-8 [5]; [10]): 33.3 ± 8.1%; % inhibition of IL-8-secretion (IL-8 [5]; [11]): 46.0±8.1%; % inhibition of IL-8-secretion (IL-8 [5]; [12]): 35.9 ± 11.4%
CCCCC/C=C\C/C=C\CCCCCCCC(=O)O [LA, cis-9,cis-12-octadecadienoic acid, reference compound] | no effect | 1483 ± 209 pg/100.000 cells | 1341 ± 110 pg/100.000 cells | 1533 ± 121 pg/100.000 cells | 3052 ± 292 pg/100.000 cells | 2906 ± 530 pg/100.000 cells | 2007 ± 924 pg/100.000 cells | 1440 ± 78 pg/100.000 cells | 1220 ± 120 pg/100.000 cells | 1181 ± 256 pg/100.000 cells | no effect | no effect | no effect | no effect | 6820 ± 543 pg/100.000 cells | 6252 ± 462 pg/100.000 cells | 5420 ± 1032 pg/100.000 cells | no effect | inhibition at 5 µg/mL (IL-8 [2]; Homo sapiens, BEAS-2B, 5 μg/mL, 24 h, vs stimulated control+, read-out: % inhibition of IL-8-secretion): 19.3 ± 8.7%; inhibition at 10 µg/mL (IL-8 [2]; Homo sapiens, BEAS-2B, 10 μg/mL, 24 h, vs stimulated control+, read-out: % inhibition of IL-8-secretion): 30.6 ± 3.6%; inhibition at 20 µg/mL (IL-8 [2]; Homo sapiens, BEAS-2B, 20 μg/mL, 24 h, vs stimulated control+, read-out: % inhibition of IL-8-secretion): 33.5 ± 5%; inhibition at 5 µg/mL (IL-6 [3]; Homo sapiens, 5 μg/mL, vs stimulated control+, read-out: % inhibition of IL-6-secretion): 32.1 ± 5.6%; inhibition at 10 µg/mL (IL-6 [3]; Homo sapiens, 10 μg/mL, vs stimulated control+, read-out: % inhibition of IL-6-secretion): 35 ± 8.6%; inhibition at 20 µg/mL (IL-6 [3]; Homo sapiens, 20 μg/mL, vs stimulated control+, read-out: % inhibition of IL-6-secretion): 60 ± 16.3%; inhibition at 5 µg/mL (IL-6 [4]; Homo sapiens, BEAS-2B, 5 μg/mL, 24 h, vs stimulated control+, read-out: % inhibition of IL-6-secretion): 23.1 ± 8.9%; inhibition at 10 µg/mL (IL-6 [4]; Homo sapiens, BEAS-2B, 10 μg/mL, 24 h, vs stimulated control+, read-out: % inhibition of IL-6-secretion): 38.4 ± 6.6%; inhibition at 20 µg/mL (IL-6 [4]; Homo sapiens, BEAS-2B, 20 μg/mL, 24 h, vs stimulated control+, read-out: % inhibition of IL-6-secretion): 50.2 ± 14.1%; inhibition at 20 µg/mL (NHBE; Homo sapiens, 20 μg/mL, LPS/serum-stimulated): 8.4 ± 2.1%; effect on proliferation at lower concentrations (NHBE; concentrations below 20 μg/mL): caused cell growth; effect on proliferation at lower concentrations (BEAS-2B; BEAS-2B, concentrations below 20 μg/mL, 24 h): caused cell growth; inhibition at 20 µg/mL (BEAS-2B; Homo sapiens, BEAS-2B, 20 μg/mL, 24 h, 5 μg LPS/mL + 10% serum from allergic donors): 4.7 ± 6.9%; inhibition at 5 µg/mL (IL-8 [5]; Homo sapiens, 5 μg/mL, vs stimulated control+, read-out: % inhibition of IL-8-secretion): 22.8 ± 5.2%; inhibition at 10 µg/mL (IL-8 [5]; Homo sapiens, 10 μg/mL, vs stimulated control+, read-out: % inhibition of IL-8-secretion): 27.8 ± 10.8%; inhibition at 20 µg/mL (IL-8 [5]; Homo sapiens, 20 μg/mL, vs stimulated control+, read-out: % inhibition of IL-8-secretion): 43.3 ± 14.3%
